Source: patent publication US9469650B2, “Melampomagnolide B derivatives” (BOARD OF TRUSTEES OF THE UNIVERSITY OF ARKANSAS, priority 2013, dated 2016)

Tests used:
MALME-3M [1] = test system: MALME-3M
MALME-3M [2] = assay: panel of 60 human tumor cell lines, growth inhibition (Melanoma); settings: MALME-3M
RPMI-8226 = assay: panel of 60 human tumor cell lines, growth inhibition (Leukemia); settings: RPMI-8226

C=C1C(=O)O[C@H]2[C@H]1CC/C(COC(=O)CCC(=O)N1CCC(C)CC1)=C\CC[C@@]1(C)O[C@@H]21 [JVM 2-70]
CC50 (SK-MEL-5): 47.8 µM | CC50 (NCI-H23): 64.3 µM | CC50 (MCF7): 64.1 µM | CC50 (HCC-2998): 61 µM | CC50 (MOLT-4): > 100 µM | CC50 (SW-620): 42.6 µM | CC50 (SK-OV-3): > 100 µM | CC50 (RXF 393): 9.41 µM | CC50 (OVCAR-8): 42.9 µM | CC50 (NCI-H226): 76.1 µM | CC50 (MALME-3M [1]): 53.6 µM | CC50 (NCI-H460): 89.4 µM | CC50 (786-0): 58 µM | CC50 (U251): 59.7 µM | CC50 (LOX IMVI): 41 µM | CC50 (MDA-MB-231/ATCC): 52.8 µM | CC50 (CAKI-1): 36.2 µM | CC50 (M14): 49.3 µM | CC50 (SF-295): 71 µM | CC50 (SK-MEL-28): 44.5 µM | CC50 (T-47D): > 100 µM | CC50 (HCT-15): 32.6 µM | CC50 (NCI-H522): 5.99 µM | CC50 (IGROV1): 94 µM | CC50 (OVCAR-5): 49.9 µM | CC50 (SK-MEL-2): 61 µM | CC50 (PC-3): 69.1 µM | CC50 (SNB-19): 63.4 µM | CC50 (SR): > 100 µM | CC50 (UACC-62): 49.5 µM | CC50 (A498): 45.2 µM | CC50 (HS 578T): > 100 µM | CC50 (A549/ATCC): 75.9 µM | CC50 (SF-268): 69.1 µM | CC50 (NCI-H322M): 65.1 µM | Percent Growth (MALME-3M [2]; Log10 Concentration −4.0): −67% | Percent Growth (MALME-3M [2]; Log10 Concentration −5.0): −5% | Percent Growth (MALME-3M [2]; Log10 Concentration −6.0): 99% | Percent Growth (MALME-3M [2]; Log10 Concentration −7.0): 108% | Percent Growth (MALME-3M [2]; Log10 Concentration −8.0): 106% | GI50 (MALME-3M [2]; NCI five dose): 2.95 µM | TGI (MALME-3M [2]; NCI five dose): 8.96E−5 | CC50 (SNB-75): 57 µM | CC50 (K-562): > 100 µM | CC50 (SN12C): 51.9 µM | CC50 (MDA-MB-435): 61.9 µM | CC50 (TK-10): 36.3 µM | CC50 (HT29): 44.5 µM | CC50 (CCRF-CEM): 58.6 µM | Percent Growth (RPMI-8226; Log10 Concentration −4.0): −34% | Percent Growth (RPMI-8226; Log10 Concentration −5.0): 28% | Percent Growth (RPMI-8226; Log10 Concentration −6.0): 96% | Percent Growth (RPMI-8226; Log10 Concentration −7.0): 98% | Percent Growth (RPMI-8226; Log10 Concentration −8.0): 101% | GI50 (RPMI-8226; NCI five dose): 4.74 µM | TGI (RPMI-8226; NCI five dose): 2.82E−5 | CC50 (DU-145): 45.9 µM

C=C1C(=O)O[C@H]2[C@H]1CC/C(COC(=O)N1CCC(F)(F)CC1)=C\CC[C@@]1(C)O[C@@H]21 [JVM 2-66]
CC50 (SK-MEL-5): 40.3 µM | CC50 (NCI-H23): 48.2 µM | CC50 (MCF7): 26.4 µM | CC50 (HCC-2998): 57.9 µM | CC50 (MOLT-4): > 100 µM | CC50 (SW-620): 17.9 µM | CC50 (SK-OV-3): 63.8 µM | CC50 (RXF 393): 5.33 µM | CC50 (OVCAR-8): 38.5 µM | CC50 (NCI-H226): 10.9 µM | CC50 (MALME-3M [1]): 21.6 µM | CC50 (NCI-H460): 72.6 µM | CC50 (786-0): 48.6 µM | CC50 (U251): 52.1 µM | CC50 (LOX IMVI): 22.5 µM | CC50 (MDA-MB-231/ATCC): 30.7 µM | CC50 (CAKI-1): 23.8 µM | CC50 (M14): 41.7 µM | CC50 (SF-295): 51.5 µM | CC50 (SK-MEL-28): 33 µM | CC50 (T-47D): > 100 µM | CC50 (HCT-15): 10 µM | CC50 (NCI-H522): 6.08 µM | CC50 (IGROV1): 59.7 µM | CC50 (OVCAR-5): 48.1 µM | CC50 (SK-MEL-2): 37 µM | CC50 (PC-3): 53.8 µM | CC50 (SNB-19): 62.7 µM | CC50 (SR): > 100 µM | CC50 (UACC-62): 23.2 µM | CC50 (A498): 28.9 µM | CC50 (HS 578T): > 100 µM | CC50 (A549/ATCC): 66.2 µM | CC50 (SF-268): 56.5 µM | CC50 (NCI-H322M): 54.6 µM | GI50 (MALME-3M [2]): 1.9 µM | TGI (MALME-3M [2]): 4.82E−6 | Percent Growth (MALME-3M [2]; Log10 Concentration −4.0): −72% | Percent Growth (MALME-3M [2]; Log10 Concentration −5.0): −39% | Percent Growth (MALME-3M [2]; Log10 Concentration −6.0): 84% | Percent Growth (MALME-3M [2]; Log10 Concentration −7.0): 91% | Percent Growth (MALME-3M [2]; Log10 Concentration −8.0): 99% | CC50 (SNB-75): 47.2 µM | CC50 (K-562): > 100 µM | CC50 (SN12C): 37.7 µM | CC50 (MDA-MB-435): 95.1 µM | CC50 (TK-10): 23.5 µM | CC50 (HT29): 40.3 µM | CC50 (CCRF-CEM): 67.6 µM | GI50 (RPMI-8226): 1.98 µM | TGI (RPMI-8226): 5.83E−6 | Percent Growth (RPMI-8226; Log10 Concentration −4.0): −46% | Percent Growth (RPMI-8226; Log10 Concentration −5.0): −25% | Percent Growth (RPMI-8226; Log10 Concentration −6.0): 81% | Percent Growth (RPMI-8226; Log10 Concentration −7.0): 97% | Percent Growth (RPMI-8226; Log10 Concentration −8.0): 98% | CC50 (DU-145): 28.9 µM
